From patent US20240208963A1, “CRYSTALLINE MELANOCORTIN SUBTYPE-2 RECEPTOR (MC2R) ANTAGONIST” (Crinetics Pharmaceuticals, Inc., priority 2022, published 2024)
Counter-ions that a name gives are not always drawn. Like-named read-outs stand apart in the source and are kept apart here. Marks after values point to notes of the source that are not given here.

Tests used:
[1] = Solubility of solid state forms in solvents (gravimetric or solvent addition); format: physicochemical
Procedure: The solubility of certain solid state forms of Compound I was determined in various solvents by either gravimetric solubility or solvent addition.
About 25 mg of compound was weighed into vials. Approximately 5 vol. (0.125 mL) of solvent was added to the solids and the mixtures stirred at the designated temperature (RT or 50° C.). Solutions were noted and an additional 0.125 mL of solvent was added to the slurries. […] If a thicker slurry was noted, 0.25 mL of solvent was added (total volume 0.5 mL). If a thick slurry was again noted, an additional 0.25 mL of solvent was added (total volume 0.75 mL). After stirring for 2 days, the slurries were centrifuged, the supernatant was collected into preweighed vials, and the solvent evaporated at 50° C. (ambient pressure) without stirring. The vials containing the solid residues were dried in a vacuum oven at 50 C, 10^−2-10^−1 Torr, for 3 h before weighing again to determine the mass of solid that was dissolved in the supernatant (i.e. mg solid/mL solvent).
About 20 mg of compound was weighed into vials. Solvent was added in aliquots and stirred at the designated temperature until complete dissolution was observed. This measurement gave a solubility range.

[2] = Solubility in simulated fluids and water; format: physicochemical; conditions: 37° C.
Procedure: Calibration samples for solubility in simulated fluids were prepared with freebase Compound I.
Solubility in simulated fluids were studied with the mandelate and maleate solids. The simulated fluids FaSSIF (fasted-state intestinal), FaSSGF (fasted-state gastric), and FeSSIF (fed-state intestinal) were removed from the refrigerator, warmed to room temperature, and the pH of each was measured. Between 1.9 and 2.0 mg of each salt was weighed into four vials and 1 mL of each fluid was added, including water. Stir bars (10 mm) were added to the vials and the vials were stirred at 37° C. After 30 mi (mandelate samples) or 1 h (maleate samples), the pH of each solution was measured, then 400 μL of each was removed and syringe filtered with 0.45 µm syringe filters. Approximately 300 μL of the recovered filtrate was diluted 5× with diluent and injected for HPLC analysis. The remainder of the samples in the vials were allowed to stir overnight. After 24 h stirring at 37° C., samples were filtered and diluted as before, and injected for analysis.

[3] = Dynamic vapor sorption (DVS); format: physicochemical
Procedure: DVS was performed using a DVS Intrinsic 1. The sample (20-25 mg) was loaded into a sample pan, suspended from a microbalance and exposed to a humidified stream of nitrogen gas. The sample was held for a minimum of 5 min at each level and only progressed to the next humidity level if there was <0.002% change in weight between measurements (interval: 60 s) or 240 min had elapsed. The following program was used: • 1. Equilibration at 50% RH • 2. 50% to 2%. (50%, 40%, 30%, 20%, 10%, and 2%) • 3. 2% to 95% (2%, 10%, 20%, 30%, 40%, 50%, 60%, 70%, 80%, 90%, and 95%) • 4. 95% to 2% (95%, 80%, 70%, 60%, 50%, 40%, 30%, 20%, 10%, and 2%) • 5. 2% to 50% (2%, 10%, 20%, 30%, 40%, and 50%)

[4] = Form stability at ambient conditions for one week (XRPD); format: physicochemical
Description: Some of the samples generated in the antisolvent crystallization experiments were mixtures of Pattern B, Pattern C, and Pattern D. These samples were left at ambient conditions for one week, then analyzed again by XRPD.
Pure Pattern B was generated in the antisolvent crystallization with MIBK and heptane. […] The solids were scraped from the XRPD plate and used for simultaneous TGA/DSC analysis. […] After the solids required for the TGA/DSC analysis were transferred to the pan, the remainder of the solids were re-pressed to the XRPD sample plate and analyzed again.

[5] = Stability of crystalline forms at 40° C. and 75% relative humidity (XRPD, HPLC purity); conditions: for Change by XRPD after storage / Degradation by HPLC purity analysis after storage: 40° C., 75% relative humidity
Procedure: Approximately 10 mg of the Crystalline Pattern D of Compound I Maleate, 20 mg of the Crystalline Pattern C of Compound I Maleate, and 10 mg of the Crystalline Pattern E of Compound I Mandelate were weighed into open 4 mL vials that were placed into a 20 mL vial containing a saturated NaCl solution. The vial was sealed and kept at 40° C. for 7 days, creating an atmosphere at 75% relative humidity in the system. After 7 days, the materials were sampled and plated for XRPD analysis.
The stability test was repeated on Patterns C and D of Compound I Maleate for 11 days.

SMILES: CCOc1ccccc1-c1ccc(N2CCN(C(=O)C3(C(F)(F)F)CCC3)C[C@H]2CC)c(C(=O)N[C@@H]2CN3CCC2CC3)n1 [Pattern D Maleate, N-[(3S)-1-azabicyclo[2.2.2]octan-3-yl]-6-(2-ethoxyphenyl)-3-[(2R)-2-ethyl-4-[1-(trifluoromethyl)-cyclobutanecarbonyl]piperazin-1-yl]pyridine-2-carboxamide maleate]
- Solubility (in words) ([1]; EtOAc and MIBK at RT and 50° C.): freely soluble and soluble
- solubility ([1]; EtOAc, 50 °C, organic solvent or mixture, thermodynamic from solid, EtOAc, 50° C., read-out: Solubility): 68 mg/mL
- solubility ([1]; EtOAc, RT, maleate): 43^d mg/mL
- solubility ([1]; EtOH, RT, maleate): >50^a mg/mL
- solubility ([1]; EtOH:MtBE (1:9 vol.), organic solvent or mixture, thermodynamic from solid, EtOH:MtBE (1:9 vol.), RT, read-out: Solubility): 4 mg/mL
- solubility ([1]; EtOH:MtBE (3:7 vol.), organic solvent or mixture, thermodynamic from solid, EtOH:MtBE (3:7 vol.), RT, read-out: Solubility): 51 mg/mL
- Solubility (in words) ([1]; IP at RT): soluble
- Behaviour in solvent (in words) ([1]; IPA, 50° C.): a slurry could not be maintained
- solubility ([1]; IPA, organic solvent or mixture, thermodynamic from solid, IPA, RT, read-out: Solubility): 68 mg/mL
- solubility ([1]; IPA:MtBE (1:1 vol.), organic solvent or mixture, thermodynamic from solid, IPA:MtBE (1:1 vol.), RT, read-out: Solubility): 10 mg/mL
- solubility ([1]; IPA:MtBE (1:9 vol.), organic solvent or mixture, thermodynamic from solid, IPA:MtBE (1:9 vol.), RT, read-out: Solubility): < 3 mg/mL
- solubility ([1]; IPA:MtBE (3:7 vol.), organic solvent or mixture, thermodynamic from solid, IPA:MtBE (3:7 vol.), RT, read-out: Solubility): 7 mg/mL
- solubility ([1]; IPA:water (9:1 vol.), organic solvent or mixture, thermodynamic from solid, IPA:water (9:1 vol.), RT, read-out: Solubility): > 333 mg/mL
- solubility ([1]; IPAc, 50 °C, organic solvent or mixture, thermodynamic from solid, IPAc, 50° C., read-out: Solubility): 13 mg/mL
- solubility ([1]; IPAc, organic solvent or mixture, thermodynamic from solid, IPAc, RT, read-out: Solubility): 7 mg/mL
- solubility ([1]; MEK, RT, maleate): >50^a mg/mL
- solubility ([1]; MIBK, 50 °C, organic solvent or mixture, thermodynamic from solid, MIBK, 50° C., read-out: Solubility): 65 mg/mL
- solubility ([1]; MIBK, RT, maleate): 43^c mg/mL
- solubility ([1]; MeOAc, 50 °C, organic solvent or mixture, thermodynamic from solid, MeOAc, 50° C., read-out: Solubility): > 250 mg/mL
- solubility ([1]; MeOAc, organic solvent or mixture, thermodynamic from solid, MeOAc, RT, read-out: Solubility): 168 mg/mL
- solubility ([1]; MeOAc:MtBE (1:1 vol.), organic solvent or mixture, thermodynamic from solid, MeOAc:MtBE (1:1 vol.), RT, read-out: Solubility): 17 mg/mL
- solubility ([1]; MeOAc:MtBE (1:9 vol.), organic solvent or mixture, thermodynamic from solid, MeOAc:MtBE (1:9 vol.), RT, read-out: Solubility): 3 mg/mL
- solubility ([1]; MeOAc:MtBE (3:7 vol.), organic solvent or mixture, thermodynamic from solid, MeOAc:MtBE (3:7 vol.), RT, read-out: Solubility): 7 mg/mL
- solubility ([1]; MeOH, RT, maleate): >50^a mg/mL
- solubility ([1]; MtBE, 50 °C, organic solvent or mixture, thermodynamic from solid, MtBE, 50° C., read-out: Solubility): < 3 mg/mL
- solubility ([1]; MtBE, RT, maleate): <3^c mg/mL
- solubility ([1]; THF, RT, maleate): >50^a mg/mL
- solubility ([1]; acetone, RT, maleate): >50^a mg/mL
- solubility ([1]; diethyl ether, organic solvent or mixture, thermodynamic from solid, diethyl ether, RT, read-out: Solubility): 4 mg/mL
- Solubility (in words) ([1]; heptane, diethyl ether, and MtBE): insoluble
- solubility ([1]; n-heptane, 50 °C, organic solvent or mixture, thermodynamic from solid, n-heptane, 50° C., read-out: Solubility): < 3 mg/mL
- solubility ([1]; n-heptane, RT, maleate): <3^c mg/mL
- solubility at 1 h ([2]; FaSSGF (fasted-state simulated gastric fluid), pH 1.49, fassgf or other biorelevant, thermodynamic from solid, FaSSGF, 1 h): > 2.5 mg/mL
- solubility at 24 h ([2]; FaSSGF (fasted-state simulated gastric fluid), pH 1.49, fassgf or other biorelevant, thermodynamic from solid, FaSSGF, 24 h): > 2.5 mg/mL
- Sample pH ([2]; FaSSGF (initial pH 1.49), 1 h): 4.66
- Sample pH ([2]; FaSSGF (initial pH 1.49), 24 h): 5.07
- solubility at 24 h ([2]; FaSSIF (fasted-state simulated intestinal fluid), pH 6.35, thermodynamic from solid, FaSSIF, 24 h): 1.47 mg/mL
- solubility at 1 h ([2]; FaSSIF (fasted-state simulated intestinal fluid), thermodynamic from solid, FaSSIF, 1 h): 1.5 mg/mL
- Sample pH ([2]; FaSSIF (initial pH 6.35), 1 h): 6.23
- Sample pH ([2]; FaSSIF (initial pH 6.35), 24 h): 6.92
- Solids recovered from the solubility experiment (appearance, XRPD) ([2]; FaSSIF, after 24 h): oily and appeared as amorphous
- solubility at 1 h ([2]; FeSSIF (fed-state simulated intestinal fluid), pH 4.83, thermodynamic from solid, FeSSIF, 1 h): > 2.5 mg/mL
- solubility at 24 h ([2]; FeSSIF (fed-state simulated intestinal fluid), pH 4.83, thermodynamic from solid, FeSSIF, 24 h): > 2.5 mg/mL
- Sample pH ([2]; FeSSIF (initial pH 4.83), 1 h): 1.50
- Sample pH ([2]; FeSSIF (initial pH 4.83), 24 h): 1.85
- solubility at 1 h ([2]; thermodynamic from solid, water, 1 h): > 2.5 mg/mL
- solubility at 24 h ([2]; thermodynamic from solid, water, 24 h): > 2.5 mg/mL
- Sample pH ([2]; water, 1 h): ~6.35
- Sample pH ([2]; water, 24 h): 5.60
- Hygroscopicity (in words) ([3]; DVS): slightly hygroscopic
- Change by XRPD following the DVS analysis ([3]; after DVS from 2 to 95% RH): No change
- Reversible mass gain (DVS) ([3]; from 2 to 95% relative humidity): 1.14 wt. %
- Behaviour at high humidity ([3]; high humidity): stable
- Form conversion by XRPD at ambient conditions [4]: no observable conversion
- Change by XRPD after storage ([5]; 7 days): No visible change
- Degradation by HPLC purity analysis after storage ([5]; 7 days): no degradation
- Change by XRPD after storage ([5]; 11 days): No visible change
- Degradation by HPLC purity analysis after storage ([5]; 11 days): no degradation
- Stability on storage (in words) ([5]; over a week at 40° C. and 75% RH): stable
